Test results taken from ChEMBL document CHEMBL4393682, “Development of M10, myricetin-3-O-β-d-lactose sodium salt, a derivative of myricetin as a potent agent of anti-chronic colonic inflammation” (Eur J Med Chem, 2019).
≈ marks a conversion by molar mass, not a printed value. One block for each compound: values may come before it. Calls of active or inactive are those of the source. The rule behind the calls is not given here.

Assays:
[1] = Aqueous solubility of compound after 24 hrs by HPLC analysis; type: physicochemical; conditions: for solubility at 24 h: aqueous; for solubility: buffer, 24 h
Mus musculus [2] = assay: Anti-inflammatory activity against DSS-induced ulcerative colitis C57BL/6 mouse model assessed as increase in colon length administered via gavage once a day for 14 consecutive days starting from second day post DSS challenge; type: functional, organism-based
[3] = Elimination rate constant in Wistar rat plasma at 3 uM measured up to 180 mins by LC-MS/MS analysis; type: ADME, cell-free
[4] = Half life in Wistar rat plasma at 3 uM measured up to 180 mins by LC-MS/MS analysis; type: ADME, cell-free
[5] = Elimination rate constant in Wistar rat liver microsomes at 1 uM measured up to 120 mins by LC-MS/MS analysis; type: ADME, Microsome
[6] = Half life in Wistar rat liver microsomes at 1 uM measured up to 120 mins by LC-MS/MS analysis; type: ADME, Microsome; conditions: 2 h
Mus musculus [7] = assay: Anti-inflammatory activity against DSS-induced ulcerative colitis C57BL/6 mouse model assessed as colon length at 100 mg/kg, ig administered via gavage once a day for 14 consecutive days starting from second day post DSS challenge (reference value: 5.93 +/- 0.52 cm); type: functional
[8] = Metabolic stability in Wistar rat plasma assessed as compound remaining at 3 uM after 5 mins by LC-MS/MS analysis relative to control; type: ADME, cell-free; conditions: read-out: Stability
[9] = Metabolic stability in Wistar rat plasma assessed as compound remaining at 3 uM after 10 mins by LC-MS/MS analysis relative to control; type: ADME, cell-free; conditions: read-out: Stability
[10] = Metabolic stability in Wistar rat plasma assessed as compound remaining at 3 uM after 20 mins by LC-MS/MS analysis relative to control; type: ADME, cell-free; conditions: read-out: Stability
[11] = Metabolic stability in Wistar rat plasma assessed as compound remaining at 3 uM after 40 mins by LC-MS/MS analysis relative to control; type: ADME, cell-free; conditions: read-out: Stability
[12] = Metabolic stability in Wistar rat plasma assessed as compound remaining at 3 uM after 60 mins by LC-MS/MS analysis relative to control; type: ADME, cell-free; conditions: read-out: Stability
[13] = Metabolic stability in Wistar rat plasma assessed as compound remaining at 3 uM after 90 mins by LC-MS/MS analysis relative to control; type: ADME, cell-free; conditions: read-out: Stability
[14] = Metabolic stability in Wistar rat plasma assessed as compound remaining at 3 uM after 120 mins by LC-MS/MS analysis relative to control; type: ADME, cell-free; conditions: read-out: Stability
[15] = Metabolic stability in Wistar rat plasma assessed as compound remaining at 3 uM after 180 mins by LC-MS/MS analysis relative to control; type: ADME, cell-free; conditions: read-out: Stability
[16] = Metabolic stability in Wistar rat liver microsomes assessed as compound remaining at 1 uM after 5 mins by LC-MS/MS analysis relative to control; type: ADME, Microsome; conditions: read-out: Stability
[17] = Metabolic stability in Wistar rat liver microsomes assessed as compound remaining at 1 uM after 10 mins by LC-MS/MS analysis relative to control; type: ADME, Microsome; conditions: read-out: Stability
[18] = Metabolic stability in Wistar rat liver microsomes assessed as compound remaining at 1 uM after 20 mins by LC-MS/MS analysis relative to control; type: ADME, Microsome; conditions: read-out: Stability
[19] = Metabolic stability in Wistar rat liver microsomes assessed as compound remaining at 1 uM after 30 mins by LC-MS/MS analysis relative to control; type: ADME, Microsome; conditions: read-out: Stability
[20] = Metabolic stability in Wistar rat liver microsomes assessed as compound remaining at 1 uM after 40 mins by LC-MS/MS analysis relative to control; type: ADME, Microsome; conditions: read-out: Stability
[21] = Metabolic stability in Wistar rat liver microsomes assessed as compound remaining at 1 uM after 60 mins by LC-MS/MS analysis relative to control; type: ADME, Microsome; conditions: read-out: Stability
[22] = Metabolic stability in Wistar rat liver microsomes assessed as compound remaining at 1 uM after 90 mins by LC-MS/MS analysis relative to control; type: ADME, Microsome; conditions: read-out: Stability
[23] = Metabolic stability in Wistar rat liver microsomes assessed as compound remaining at 1 uM after 120 mins by LC-MS/MS analysis relative to control; type: ADME, Microsome; conditions: read-out: Stability
Mus musculus [24] = assay: Anti-inflammatory activity against DSS-induced ulcerative colitis C57BL/6 mouse model assessed as colon length at 100 mg/kg, ig administered for 7 consecutive days followed by 7 days treatment with drinking water followed by three additional DSS treatment cycles (reference value: 5.93 +/- 0.52 cm); type: functional
[25] = Ratio of compound t1/2 to myricetin t1/2 in Wistar rat plasma at 3 uM measured up to 180 mins by LC-MS/MS analysis; type: ADME, cell-free; conditions: 3 h
Mus musculus [26] = assay: Anti-inflammatory activity against DSS-induced ulcerative colitis C57BL/6 mouse model assessed as colon length at 50 mg/kg, ig administered via gavage once a day for 14 consecutive days starting from second day post DSS challenge (reference value: 5.93 to 7.1 cm); type: functional
Mus musculus [27] = assay: Anti-inflammatory activity against DSS-induced ulcerative colitis C57BL/6 mouse model assessed as mild cellular infiltration in colon at 50 mg/kg, ig administered via gavage once a day for 14 consecutive days starting from second day post DSS challenge by H and E staining based analysis; type: functional, organism-based
Mus musculus [28] = assay: Anti-inflammatory activity against DSS-induced ulcerative colitis C57BL/6 mouse model assessed as decrease in inflammatory score at 50 mg/kg, ig administered via gavage once a day for 14 consecutive days starting from second day post DSS challenge; type: functional, organism-based
[29] = Toxicity in po dosed mouse; type: organism-based; conditions: in vivo
[30] = Ratio of compound t1/2 to myricetin t1/2 in Wistar rat liver microsomes at 1 uM measured up to 120 mins by LC-MS/MS analysis; type: ADME, Microsome; conditions: 2 h
[31] = Ratio of compound solubility to myricetin solubility in water after 24 hrs by HPLC analysis; type: physicochemical; conditions: buffer

Compound: CC(=O)OC[C@H]1O[C@@H](O[C@H]2[C@H](OC(C)=O)[C@@H](OC(C)=O)[C@H](Oc3c(-c4cc(O)c(O)c(O)c4)oc4cc(O)cc(O)c4c3=O)O[C@@H]2COC(C)=O)[C@H](OC(C)=O)[C@@H](OC(C)=O)[C@H]1OC(C)=O
- solubility at 24 h [1]: 1390 µg/mL (≈ 1480 µM)
- Activity (Mus musculus [2]): Active

Compound: Nc1ccc(O)c(C(=O)O)c1 [MESALAMINE]
- Activity (Mus musculus [24]): 7.15 cm

Compound: O=c1c(O[C@@H]2O[C@H](CO)[C@@H](O[C@@H]3O[C@H](CO)[C@H](O)[C@H](O)[C@H]3O)[C@H](O)[C@H]2O)c(-c2cc(O)c(O)c(O)c2)oc2cc([O-])cc(O)c12.[Na+]
- Ratio [25]: 10
- solubility at 24 h [1]: > 100000 µg/mL
- k el at 3 h, 3 µM [3]: 0.000167 s⁻¹
- half-life at 3 µM [4]: 2.42 h
- k el at 2 h, 1 µM [5]: 0.000167 s⁻¹
- t1/2 [6]: 6.8098 h
- Activity (Mus musculus [26]): 8.11 - 10.6 cm
- Activity (Mus musculus [27]): Active
- inhibition (Mus musculus [28]): Active
- LD50 [29]: > 5000 mg/kg
- remaining at 5 min, 3 µM [8]: 99.7%
- remaining at 10 min, 3 µM [9]: 88.9%
- remaining at 20 min, 3 µM [10]: 79.8%
- remaining at 40 min, 3 µM [11]: 82.4%
- remaining at 1 h, 3 µM [12]: 67.7%
- remaining at 1.5 h, 3 µM [13]: 67.8%
- remaining at 2 h, 3 µM [14]: 55%
- remaining at 3 h, 3 µM [15]: 58.4%
- remaining at 5 min, 1 µM [16]: 96.6%
- remaining at 10 min, 1 µM [17]: 89.7%
- remaining at 20 min, 1 µM [18]: 82.5%
- remaining at 0.5 h, 1 µM [19]: 87.2%
- remaining at 40 min, 1 µM [20]: 87.5%
- remaining at 1 h, 1 µM [21]: 83.5%
- remaining at 1.5 h, 1 µM [22]: 78.1%
- remaining at 2 h, 1 µM [23]: 76.1%
- Ratio [30]: 20
- Ratio [31]: > 7000

Continued, in another order:

- solubility at 24 h [1]: 14 µg/mL (≈ 44 µM)
- k el at 3 h, 3 µM [3]: 0.000833 s⁻¹
- half-life at 3 µM [4]: 0.234 h
- k el at 2 h, 1 µM [5]: 0.0005 s⁻¹
- t1/2 [6]: 0.3397 h
- remaining at 5 min, 3 µM [8]: 98.1%
- remaining at 10 min, 3 µM [9]: 89.2%
- remaining at 20 min, 3 µM [10]: 62.1%
- remaining at 40 min, 3 µM [11]: 19%
- remaining at 1 h, 3 µM [12]: 5.81%
- remaining at 1.5 h, 3 µM [13]: 0.96%
- remaining at 2 h, 3 µM [14]: 1.23%
- remaining at 3 h, 3 µM [15]: 0.53%
- remaining at 5 min, 1 µM [16]: 81.3%
- remaining at 10 min, 1 µM [17]: 55.9%
- remaining at 20 min, 1 µM [18]: 31.6%
- remaining at 0.5 h, 1 µM [19]: 18.1%
- remaining at 40 min, 1 µM [20]: 8.01%
- remaining at 1 h, 1 µM [21]: 4.85%
- remaining at 1.5 h, 1 µM [22]: 3.32%
- remaining at 2 h, 1 µM [23]: 1.9%
Compound: O=c1c(O)c(-c2cc(O)c(O)c(O)c2)oc2cc(O)cc(O)c12 [MYRICETIN]
- Activity (Mus musculus [7]): 6.55 cm

- solubility [1]: < 0.1 µg/mL
Compound: O=C(Oc1c(-c2cc(O)c(O)c(O)c2)oc2cc(O)cc(OC(=O)c3ccccc3O)c2c1=O)c1ccccc1O
- Activity (Mus musculus [2]): Active

- solubility [1]: < 0.02 µg/mL
Compound: O=C(Oc1cc(OC(=O)c2ccccc2O)c2c(=O)c(OC(=O)c3ccccc3O)c(-c3cc(OC(=O)c4ccccc4O)c(OC(=O)c4ccccc4O)c(OC(=O)c4ccccc4O)c3)oc2c1)c1ccccc1O
- Activity (Mus musculus [2]): Active

- solubility [1]: < 0.1 µg/mL
Compound: CC(=O)OC[C@H]1O[C@@H](O[C@H]2[C@H](OC(C)=O)[C@@H](OC(C)=O)[C@H](Oc3c(-c4cc(OCc5ccccc5)c(OCc5ccccc5)c(OCc5ccccc5)c4)oc4cc(OCc5ccccc5)cc(O)c4c3=O)O[C@@H]2COC(C)=O)[C@H](OC(C)=O)[C@@H](OC(C)=O)[C@H]1OC(C)=O
- Activity (Mus musculus [2]): Active
